{"source": "the OligoGym collection", "note": "These antisense oligonucleotides have a phosphorothioate backbone; sugars and methylation of C are not fully specified. Further: test concentration or dose not given here."}
{"molecular_target": "MAP3K1", "conditions": "ASO"}
{"sequence": "TTGTTTTCAGGACAGTTTCT", "remaining target (mRNA or protein) (fraction of control)": 0.65}
{"sequence": "AGTAACCATTCTTGCAGAAC", "remaining target (mRNA or protein) (fraction of control)": "≥ 1"}
{"sequence": "GTAGATATCAATGTGGTTCC", "remaining target (mRNA or protein) (fraction of control)": 0.75}
{"sequence": "CTGTAGTAACCATTCTTGCA", "remaining target (mRNA or protein) (fraction of control)": 0.4}
{"sequence": "CAGTTTTGAAAACACATGGG", "remaining target (mRNA or protein) (fraction of control)": "≥ 1"}
{"sequence": "GGCAGCCGCGCGCGCGCTGC", "remaining target (mRNA or protein) (fraction of control)": 0.81}
{"sequence": "TTGTTGAACTAGAAGGTCCT", "remaining target (mRNA or protein) (fraction of control)": 0.57}
{"sequence": "TTGTTGAGCATCCTGTTTCT", "remaining target (mRNA or protein) (fraction of control)": 0.39}
{"sequence": "CCCACTCCCCGCTGCGTCCG", "remaining target (mRNA or protein) (fraction of control)": 0.06}
{"sequence": "AATCCTTTTCCAGTTTTCTC", "remaining target (mRNA or protein) (fraction of control)": 0.87}
{"sequence": "GTTGTCGTTGTAAAGTGTCT", "remaining target (mRNA or protein) (fraction of control)": 0.45}
{"sequence": "GCAACCCTTTGAGAGTTTCT", "remaining target (mRNA or protein) (fraction of control)": 0.32}
{"sequence": "CAGTCCGCCCGCTCGCGGCC", "remaining target (mRNA or protein) (fraction of control)": 0.34}
{"sequence": "GCTCCTCCGCCGCCGCCTGC", "remaining target (mRNA or protein) (fraction of control)": 0.27}
{"molecular_target": "PRKACA", "conditions": "ASO"}
{"sequence": "CGGCGGCGGCGTTGCCCATC", "remaining target (mRNA or protein) (fraction of control)": 0.21}
{"sequence": "TGCCCATCGCGGCGGCGGCG", "remaining target (mRNA or protein) (fraction of control)": 0.71}
{"sequence": "CAAACTGATCCAAGTGGGCT", "remaining target (mRNA or protein) (fraction of control)": 0.27}
{"sequence": "GAACATCTCCCCGCCGGGCA", "remaining target (mRNA or protein) (fraction of control)": 0.87}
{"sequence": "ACCCTCGCAGGATTGGCAGA", "remaining target (mRNA or protein) (fraction of control)": 0.47}
{"sequence": "GGAGCAGCTGGTGTTTCTGT", "remaining target (mRNA or protein) (fraction of control)": 0.61}
{"sequence": "TGGCTCCCCAGCGGCTCCCC", "remaining target (mRNA or protein) (fraction of control)": 0.64}
{"sequence": "CCAGCATCACCCGCCCGAAG", "remaining target (mRNA or protein) (fraction of control)": 0.34}
{"sequence": "TGCAGGGATGCCCTCCCCAC", "remaining target (mRNA or protein) (fraction of control)": 0.35}
{"sequence": "TCTGCGAAGAAGGGCGGGTA", "remaining target (mRNA or protein) (fraction of control)": "≥ 1"}
{"sequence": "CCTTGAACCCCGGGCCGTGG", "remaining target (mRNA or protein) (fraction of control)": 0.44}
{"sequence": "ATTCTTTCACGCTCTCCTGC", "remaining target (mRNA or protein) (fraction of control)": 0.97}
{"sequence": "AGCACAAATGAGAAAGTGGG", "remaining target (mRNA or protein) (fraction of control)": 0.93}
{"sequence": "CACACAGGTTGAATCGCCCC", "remaining target (mRNA or protein) (fraction of control)": 0.39}
{"sequence": "GTTGCCCATCGCGGCGGCGG", "remaining target (mRNA or protein) (fraction of control)": 0.53}
{"sequence": "GCGTTGCCCATCGCGGCGGC", "remaining target (mRNA or protein) (fraction of control)": 0.36}
{"sequence": "GCGGCGGGTGCTGGCTGCGG", "remaining target (mRNA or protein) (fraction of control)": 0.85}
{"sequence": "CGGCGTTGCCCATCGCGGCG", "remaining target (mRNA or protein) (fraction of control)": 0.47}
{"sequence": "AAGCAACCCACTGAACATGT", "remaining target (mRNA or protein) (fraction of control)": 0.62}
{"sequence": "GCGGCCCTTCACGCGCTTGG", "remaining target (mRNA or protein) (fraction of control)": "≥ 1"}
{"sequence": "GGCGGCGTTGCCCATCGCGG", "remaining target (mRNA or protein) (fraction of control)": 0.31}
{"sequence": "TAGTTTTCAAATATGTTTAC", "remaining target (mRNA or protein) (fraction of control)": "≥ 1"}
{"sequence": "CTTCTGTTTGTCGAGGATCT", "remaining target (mRNA or protein) (fraction of control)": 0.49}
{"sequence": "CATCGCGGCGGCGGCGGCCG", "remaining target (mRNA or protein) (fraction of control)": 0.51}
{"sequence": "GCTTCTCTTTAAAATGGATT", "remaining target (mRNA or protein) (fraction of control)": 0.84}
{"sequence": "GCGGCGGCGTTGCCCATCGC", "remaining target (mRNA or protein) (fraction of control)": 0.33}
{"sequence": "CGCTGCTGGGAGGAAAGACT", "remaining target (mRNA or protein) (fraction of control)": 0.48}
{"sequence": "GTTGTCCTTGAAGGAGAACT", "remaining target (mRNA or protein) (fraction of control)": "≥ 1"}
{"sequence": "CTTCCTCATAGTCGTCAAAG", "remaining target (mRNA or protein) (fraction of control)": 0.68}
{"sequence": "TCCTTCAAGTCAGAGCTGAA", "remaining target (mRNA or protein) (fraction of control)": 0.56}
{"sequence": "TGGCTGCGGCCGGCGGCCCG", "remaining target (mRNA or protein) (fraction of control)": 0.51}
{"sequence": "TCGCGGCGGCGGCGGCCGGG", "remaining target (mRNA or protein) (fraction of control)": 0.81}
{"sequence": "CAGGCAGCCCCTCCCCAGCA", "remaining target (mRNA or protein) (fraction of control)": 0.51}
{"sequence": "AAACCACTTGTGGTTCTTGA", "remaining target (mRNA or protein) (fraction of control)": 0.66}
{"sequence": "GGCGGCGGCGGCGTTGCCCA", "remaining target (mRNA or protein) (fraction of control)": 0.51}
{"sequence": "GCTTGCAGGATGCGCTTTTC", "remaining target (mRNA or protein) (fraction of control)": 0.34}
{"sequence": "GGCATGCCCCTAAAACTCAG", "remaining target (mRNA or protein) (fraction of control)": 0.55}
{"sequence": "TAGATGAGATCCAGCGAGTG", "remaining target (mRNA or protein) (fraction of control)": 0.72}
{"sequence": "CCCATCGCGGCGGCGGCGGC", "remaining target (mRNA or protein) (fraction of control)": 0.53}
{"sequence": "TTGGCGCTTCGTTCATTTGC", "remaining target (mRNA or protein) (fraction of control)": 0.61}
{"molecular_target": "PTPN11", "conditions": "ASO"}
{"sequence": "ACACCAGTGATATTTGGGTG", "remaining target (mRNA or protein) (fraction of control)": "≥ 1"}
{"sequence": "TCTCCGCGATGTCATGTTCC", "remaining target (mRNA or protein) (fraction of control)": 0.43}
{"sequence": "CCTGCGCTGTAGTGTTTCAA", "remaining target (mRNA or protein) (fraction of control)": 0.5}
{"sequence": "TTTAGACTTGCCGTCATTGC", "remaining target (mRNA or protein) (fraction of control)": 0.32}
{"sequence": "CGCACCATCTGGATGGTTTT", "remaining target (mRNA or protein) (fraction of control)": 0.5}
{"sequence": "ATGTCATGTTCCTCCCGCCC", "remaining target (mRNA or protein) (fraction of control)": 0.43}
{"sequence": "CGATGTCATGTTCCTCCCGC", "remaining target (mRNA or protein) (fraction of control)": 0.4}
{"sequence": "AGAGCATACTCATCAGGCCA", "remaining target (mRNA or protein) (fraction of control)": 0.2}
{"sequence": "CACGTTTTCATAGACTCTAG", "remaining target (mRNA or protein) (fraction of control)": 0.71}
{"sequence": "TCCGCGATGTCATGTTCCTC", "remaining target (mRNA or protein) (fraction of control)": 0.26}
{"sequence": "AAAGAATCAAACCGTTCTCC", "remaining target (mRNA or protein) (fraction of control)": 0.58}
{"sequence": "TTGATGTGGGTGACAGCTCC", "remaining target (mRNA or protein) (fraction of control)": 0.42}
{"sequence": "CATGTTCCTCCCGCCCTCCG", "remaining target (mRNA or protein) (fraction of control)": 0.29}
{"sequence": "CCCTTGTCCAACCTTTGAAA", "remaining target (mRNA or protein) (fraction of control)": 0.25}
{"sequence": "CATCTCCGCGATGTCATGTT", "remaining target (mRNA or protein) (fraction of control)": 0.49}
{"sequence": "GGCCCGCTCGGGACCGGACG", "remaining target (mRNA or protein) (fraction of control)": 0.75}
{"sequence": "ACCATCTCCGCGATGTCATG", "remaining target (mRNA or protein) (fraction of control)": 0.33}
{"sequence": "ACGGACCCGCTCCTTGCTCA", "remaining target (mRNA or protein) (fraction of control)": 0.48}
{"sequence": "AAACCATCTCCGCGATGTCA", "remaining target (mRNA or protein) (fraction of control)": 0.41}
{"sequence": "TCCACTCGTCTGGTCCGCTA", "remaining target (mRNA or protein) (fraction of control)": 0.29}
{"sequence": "CGCGATGTCATGTTCCTCCC", "remaining target (mRNA or protein) (fraction of control)": 0.45}
{"sequence": "TACAAGAAAACTACCATGTT", "remaining target (mRNA or protein) (fraction of control)": "≥ 1"}
{"sequence": "TCAACCACATTGCAAGCCTT", "remaining target (mRNA or protein) (fraction of control)": 0.27}
{"sequence": "TTCTTCCCAAAAGCCTTGTT", "remaining target (mRNA or protein) (fraction of control)": 0.67}
{"sequence": "TTTAAATGGTTTCAAATTTT", "remaining target (mRNA or protein) (fraction of control)": "≥ 1"}
{"sequence": "ATGCTCTCCTGCTTATGGTG", "remaining target (mRNA or protein) (fraction of control)": 0.37}
{"sequence": "GTCATGTTCCTCCCGCCCTC", "remaining target (mRNA or protein) (fraction of control)": 0.24}
{"sequence": "GAAAGAACAAAATCTCCAGG", "remaining target (mRNA or protein) (fraction of control)": "≥ 1"}
{"sequence": "ACATAAACTTTCTTGCGTCT", "remaining target (mRNA or protein) (fraction of control)": 0.88}
{"sequence": "CTGTGGTCTCAGCTAATTTG", "remaining target (mRNA or protein) (fraction of control)": 0.35}
{"sequence": "TCATCTGAAACTTTTCTGCT", "remaining target (mRNA or protein) (fraction of control)": 0.84}
{"sequence": "TCCACCATAGGATTCTTCTT", "remaining target (mRNA or protein) (fraction of control)": 0.43}
{"sequence": "TTGCATTGATGTAATCTGAA", "remaining target (mRNA or protein) (fraction of control)": 0.98}
{"sequence": "GGCAGGTTTTCTCATCTGAA", "remaining target (mRNA or protein) (fraction of control)": 0.84}
{"sequence": "ATCTGCACAGTTCAGAGGAT", "remaining target (mRNA or protein) (fraction of control)": 0.51}
{"sequence": "AAAGTCATTCACCGTGTTTT", "remaining target (mRNA or protein) (fraction of control)": 0.54}
{"sequence": "AAGAATATCAATCACAATGA", "remaining target (mRNA or protein) (fraction of control)": "≥ 1"}
{"sequence": "TTCCATGTAATACTGGACCA", "remaining target (mRNA or protein) (fraction of control)": 0.29}
{"sequence": "ATCTATTTCTGTGCTGAAGT", "remaining target (mRNA or protein) (fraction of control)": 0.66}
{"sequence": "TGTTCCTCCCGCCCTCCGGC", "remaining target (mRNA or protein) (fraction of control)": "≥ 1"}
{"molecular_target": "WWP1", "conditions": "ASO"}
{"sequence": "TGTCTTGATTTGGCTGCTTC", "remaining target (mRNA or protein) (fraction of control)": 0.91}
{"sequence": "TATGATCAACAAAGTACCTT", "remaining target (mRNA or protein) (fraction of control)": "≥ 1"}
{"sequence": "GAGACGGAGATGAAGGTGTG", "remaining target (mRNA or protein) (fraction of control)": "≥ 1"}
